Experimental data from patent US8501755B2, “Tetrahydropyridothienopyrimidine compounds and methods of use thereof” (Bayer Intellectual Property GmbH, priority 2006, dated 2013).

Tests used:
Assay type in all cases: cell-based
H1975 cells = test: In vitro tumor cell proliferation assay (Cell Titer-Glo) in H1975 cells; settings: NCI-H1975; H1975 human NSCLC expressing mutant HER1 (L858R,T790M); 72 hours exposure; read-out: IC50, activities in H 1975 cell lines
Procedure, shortened: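 After 72 h compound exposure at 37° C (top 10 uM down to 64 pM, 0.1% DMSO), viability of EGFR L858R/T790M-mutant H1975 cells was read as ATP luminescence.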

N87 = test: In vitro tumor cell proliferation assay (Cell Titer-Glo) in N87 cells; settings: N87 human gastric carcinoma overexpressing HER2 and HER1; 72 hours exposure; read-out: IC50, activities in N87 cell lines
Procedure, shortened: (§1)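 Viability after 72 h drug exposure at 37 °C was read as CellTiter-Glo ATP luminescence, giving IC50. Cells (2.5×10^3/well, RPMI + 10% FBS) were compound-treated one day post-seeding, 0.1% DMSO final: A431 overexpresses HER1, N87 overexpresses HER2 and HER1.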

A431 cells = test: In vitro tumor cell proliferation assay (Cell Titer-Glo) in A431 cells; settings: Homo sapiens, A-431, 72 h, A431 human epidermoid carcinoma overexpressing HER1; 72 hours exposure; read-out: IC50, activities in A431 cell lines
Procedure, shortened: as §1

Compound	IC50 (H1975 cells)	IC50 (N87)	IC50 (A431 cells)
CN(C)CC/C=C/C(=O)N1CCc2c(sc3ncnc(Nc4ccc(OCc5ccccn5)c(Cl)c4)c23)C1 [Example 150, 1-[4-[3-chloro-4-(pyridin-2-ylmethoxy)-phenylamino]-5,8-dihydro-6H-9-thia-1,3,7-triaza-fluoren-7-yl}-5-dimethylamino-pent-2-en-1-one]	< 200 nM	< 200 nM	< 200 nM
O=C(/C=C/CCO)N1CCc2c(sc3ncnc(Nc4ccc(F)c(Cl)c4)c23)C1 [Example 151, (3E)-5-{4-[(3-chloro-4-fluorophenyl)amino]-5,8-dihydropyrido [4′,3′:4,5]thieno[2,3-d]pyrimidin-7(6H)-yl}-5-oxopent-3-en-1-ol]	1000 to 10000 nM	200 to 5000 nM	1000 to 10000 nM
O=C(/C=C/CCN1CCCC1)N1CCc2c(sc3ncnc(Nc4ccc(F)c(Cl)c4)c23)C1 [Example 152, N-(3-chloro-4-fluorophenyl)-7-[(2E)-5-pyrrolidin-1-ylpent-2-enoyl]-5,6,7,8-tetrahydropyrido [4′,3′:4,5]thieno[2,3-d]pyrimidin-4-amine]	1000 to 10000 nM	< 200 nM	1000 to 10000 nM
CN(C)CC/C=C/C(=O)N1CCc2c(sc3ncnc(Nc4ccc(F)c(Cl)c4)c23)C1 [Example 153]	1000 to 10000 nM	< 200 nM	1000 to 10000 nM
O=C(/C=C/CCN1CCCCC1)N1CCc2c(sc3ncnc(Nc4ccc(F)c(Cl)c4)c23)C1 [Example 154, N-(3-chloro-4-fluorophenyl)-7-[(2E)-5-piperidin-1-ylpent-2-enoyl]-5,6,7,8-tetrahydropyrido [4′,3′:4,5]thieno[2,3-d]pyrimidin-4-amine]	1000 to 10000 nM	< 200 nM	1000 to 10000 nM
CN(C)C/C=C/C(=O)N1CCc2c(sc3ncnc(Nc4cccc(Br)c4)c23)C1 [Example 160, N-(3-bromophenyl)-7-[(2E)-4-(dimethylamino)but-2-enoyl]-5,6,7,8-tetrahydropyrido [4′,3′:4,5]thieno[2,3-d]pyrimidin-4-amine]	< 200 nM	< 200 nM	< 200 nM
CN(C)C/C=C/C(=O)N1CCc2c(sc3ncnc(Nc4ccccc4)c23)C1 [Example 161, 7-[(2E)-4-(dimethylamino)but-2-enoyl]-N-phenyl-5,6,7,8-tetrahydropyrido [4′,3′:4,5]thieno[2,3-d]pyrimidin-4-amine]	200 to 1000 nM	< 200 nM	200 to 1000 nM
CN(C)C/C=C/C(=O)N1CCc2c(sc3ncnc(Nc4ccc(F)cc4F)c23)C1 [Example 162, N-(2,4-difluorophenyl)-7-[(2E)-4-(dimethylamino)but-enoyl]-5,6,7,8-tetrahydropyrido [4′,3′:4,5]thieno[2,3-d]pyrimidin-4-amine]	1000 to 10000 nM	< 200 nM	200 to 1000 nM
CN(C)C/C=C/C(=O)N1CCc2c(sc3ncnc(Nc4ccc(Cl)cc4)c23)C1 [Example 163, N-(4-chlorophenyl)-7-[(2E)-4-(dimethylamino)but-2-enoyl]-5,6,7,8-tetrahydropyrido [4′,3′:4,5]thieno[2,3-d]pyrimidin-4-amine]	200 to 1000 nM	< 200 nM	200 to 1000 nM
CN(C)C/C=C/C(=O)N1CCc2c(sc3ncnc(Nc4cccc(Cl)c4)c23)C1 [Example 164, N-(3-chlorophenyl)-7-[(2E)-4-(dimethylamino)but-2-enoyl]-5,6,7,8-tetrahydropyrido [4′,3′:4,5]thieno[2,3-d]pyrimidin-4-amine]	200 to 1000 nM	< 200 nM	200 to 1000 nM
CN(C)C/C=C/C(=O)N1CCc2c(sc3ncnc(Nc4ccc(Cl)c(Cl)c4)c23)C1 [Example 165, N-(3,4-dichlorophenyl)-7-{(2E)-4-[dimethylamino]but-2-enoyl}-5,6,7,8-tetrahydropyrido[4′,3′:4,5]thieno[2,3-d]pyrimidin-4-amine]	< 200 nM	< 200 nM	200 to 1000 nM
Cc1ccc(F)cc1Nc1ncnc2sc3c(c12)CCN(C(=O)/C=C/CN(C)C)C3 [Example 166, 7-[(2E)-4-(dimethylamino)but-2-enoyl]-N-(5-fluoro-2-methylphenyl)-5,6,7,8-tetrahydropyrido [4′,3′:4,5]thieno[2,3-d]pyrimidin-4-amine]	1000 to 10000 nM	200 to 5000 nM	1000 to 10000 nM
Cc1cc(C)cc(Nc2ncnc3sc4c(c23)CCN(C(=O)/C=C/CN(C)C)C4)c1 [Example 167, 7-[(2E)-4-(dimethylamino)but-2-enoyl]-N-(3,5-dimethylphenyl)-5,6,7,8-tetrahydropyrido [4′,3′:4,5]thieno[2,3-d]pyrimidin-4-amine]	1000 to 10000 nM	< 200 nM	1000 to 10000 nM
CCOc1cccc(Nc2ncnc3sc4c(c23)CCN(C(=O)/C=C/CN(C)C)C4)c1 [Example 168, 7-[(2E)-4-(dimethylamino)but-2-enoyl]-N-(3-ethoxyphenyl)-5,6,7,8-tetrahydropyrido [4′,3′:4,5]thieno[2,3-d]pyrimidin-4-amine]	1000 to 10000 nM	< 200 nM	1000 to 10000 nM
CN(C)C/C=C/C(=O)N1CCc2c(sc3ncnc(NCc4ccccc4)c23)C1 [Example 169, N-benzyl-7-[(2E)-4-(dimethylamino)but-2-enoyl]-5,6,7,8-tetrahydropyrido [4′,3′:4,5]thieno[2,3-d]pyrimidin-4-amine]	1000 to 10000 nM	< 200 nM	1000 to 10000 nM
CN(C)C/C=C/C(=O)N1CCc2c(sc3ncnc(Nc4ccc(Br)c(Cl)c4)c23)C1 [Example 172, N-(4-bromo-3-chlorophenyl)-7-[(2E)-4-(dimethylamino)but-2-enoyl]-5,6,7,8-tetrahydropyrido [4′,3′:4,5]thieno[2,3-d]pyrimidin-4-amine]	200 to 1000 nM	< 200 nM	200 to 1000 nM
CN(C)C/C=C/C(=O)N1CCc2c(sc3ncnc(Nc4ccc(C#N)c(Cl)c4)c23)C1 [Example 173, 2-chloro-4-({7-[(2E)-4-(dimethylamino)but-2-enoyl]-5,6,7,8-tetrahydropyrido [4′,3′:4,5]thieno[2,3-d]pyrimidin-4-yl}amino)benzonitrile]	1000 to 10000 nM	< 200 nM	1000 to 10000 nM
CN(C)C/C=C/C(=O)N1CCc2c(sc3ncnc(Nc4cc(Cl)cc(Cl)c4)c23)C1 [Example 174, N-(3,5-dichlorophenyl)-7-[(2E)-4-(dimethylamino)but-2-enoyl]-5,6,7,8-tetrahydropyrido [4′,3′:4,5]thieno[2,3-d]pyrimidin-4-amine]	1000 to 10000 nM	< 200 nM	1000 to 10000 nM
CN(C)C/C=C/C(=O)N1CCc2c(sc3ncnc(Nc4ccc(F)cc4)c23)C1 [Example 175, 7-[(2E)-4-(dimethylamino)but-2-enoyl]-N-(4-fluorophenyl)-5,6,7,8-tetrahydropyrido [4′,3′:4,5]thieno[2,3-d]pyrimidin-4-amine]	1000 to 10000 nM	< 200 nM	1000 to 10000 nM
CN(C)C/C=C/C(=O)N1CCc2c(sc3ncnc(Nc4ccc(F)c(Br)c4)c23)C1 [Example 176, N-(3-bromo-4-fluorophenyl)-7-[(2E)-4-(dimethylamino)but-2-enoyl]-5,6,7,8-tetrahydropyrldo [4′,3′:4,5]thieno[2,3-d]pyrimidin-4-amine]	200 to 1000 nM	< 200 nM	200 to 1000 nM
Cc1cccc(Nc2ncnc3sc4c(c23)CCN(C(=O)/C=C/CN(C)C)C4)c1 [Example 177, 7-[(2E)-4-(dimelhylamino)but-2-enoyl]-N-(3-methylphenyl)-5,6,7,8-tetrahydropyrido [4′,3′:4,5]thieno[2,3-d]pyrimidin-4-amine]	1000 to 10000 nM	< 200 nM	1000 to 10000 nM
CCc1cccc(Nc2ncnc3sc4c(c23)CCN(C(=O)/C=C/CN(C)C)C4)c1 [Example 178, 7-[(2E)-4-(dimethylamino)but-2-enoyl]-N-(3-ethylphenyl)-5,6,7,8-tetrahydropyrido [4′,3′:4,5]thieno[2,3-d]pyrimidin-4-amine]	1000 to 10000 nM	< 200 nM	1000 to 10000 nM
COc1cccc(Nc2ncnc3sc4c(c23)CCN(C(=O)/C=C/CN(C)C)C4)c1 [Example 179, 7-[(2E)-4-(dimethylamino)but-2-enoyl]-N-(3-methoxyphenyl)-5,6,7,8-tetrahydropyrido [4′,3′:4,5]thieno[2,3-d]pyrimidin-4-amine]	1000 to 10000 nM	< 200 nM	1000 to 10000 nM
CN(C)C/C=C/C(=O)N1CCc2c(sc3ncnc(Nc4ccc(Cl)c(F)c4)c23)C1 [Example 180, N-(4-chloro-3-fluorophenyl)-7-[(2E)-4-(dimethylamino)but-2-enoyl]-5,6,7,8-tetrahydropyrido [4′,3′:4,5]thieno[2,3-d]pyrimidin-4-amine]	1000 to 10000 nM	< 200 nM	200 to 1000 nM
CN(C)C/C=C/C(=O)N1CCc2c(sc3ncnc(Nc4cc(F)cc(Cl)c4)c23)C1 [Example 181, N-(3-chloro-5-fluorophenyl)-7-[(2E)-4-(dimethylamino)but-2-enoyl]-5,6,7,8-tetrahydropyrido [4′,3′:4,5]thieno[2,3-d]pyrimidin-4-amine]	1000 to 10000 nM	< 200 nM	1000 to 10000 nM
Cc1cc(Nc2ncnc3sc4c(c23)CCN(C(=O)/C=C/CN(C)C)C4)ccc1F [Example 182, 7-[(2E)-4-(dimethylamino)but-2-enoyl]-N-(4-fluoro-3-methylphenyl)-5,6,7,8-tetrahydropyrido [4′,3′:4,5]thieno[2,3-d]pyrimidin-4-amine]	1000 to 10000 nM	< 200 nM	200 to 1000 nM
